# Experimental data: patent US8383690B2, “Pharmaceutical composition useful for the treatment of peptic ulcer diseases” (Council of Scientific and Industrial Research, priority 2006, dated 2013)
# Where two headings read alike, the source gives them in different places.
# Experiments:
# H. pylori [1] = assay: MIC/MBC by microbroth dilution assay against H. pylori; type: cell-based, Helicobacter pylori
# Swiss albino mice = assay: Toxicity evaluation (mortality) in Swiss albino mice; type: in vivo
# Description: The compound oenothein C was checked for mortality of the Swiss albino mice.
# Maximum dosage of 250 mg/Kg body weight of compound oenothein C was given to 5 swiss albino mice via oral route.
# gastric H+,K+-ATPase = biological target: T1, gastric H+,K+-ATPase (Sus scrofa, UniProt P19156); assay: Anti gastric proton pump activity: H+,K+-ATPase inhibition in pig gastric membranes; type: biochemical
# T1 construct: Pig gastric membranes enriched in apical and tubulovesicular membranes were prepared according to [59]; from tissue; host or cells: pig gastric mucosa membranes (apical and tubulovesicular)
# Description: Pig gastric membranes enriched in apical and tubulovesicular membranes were prepared according to [59].
# The H^+,K^+-ATPase activity was measured at 37° C. in a 1-mL reaction mixture containing 2 mM MgCl2, 2 mM ATP, 10 mM PIPES (pH 6.8), 10 mM KCl and 10-12 μg membrane protein. An otherwise complete assay mixture was preincubated for 10 min in presence and absence of different concentrations of oenothein C or omeprazole before initiating the reaction with ATP. After incubation for 10 min, the reaction was terminated by the addition of 1 mL ice-chilled TCA (14%).
# K^+-stimulated activity, referred to as H^+,K^+-ATPase, was calculated as the difference between the activity in presence of Mg plus K^+ and the basal activity (Mg^+-ATPase) in presence of Mg^+ alone. […] Following enzymatic assay method, the inhibitory activity of oenothein C was assessed. The effects are quantitated in terms of percent inhibition of H^+,K^+-ATPase, and compared with that of omeprazole, a specific inhibitor of gastric H^+,K^+-ATPase.
# H. pylori [2] = assay: Disc diffusion sensitivity assay against H. pylori; type: cell-based, Helicobacter pylori; settings: for zone of inhibition at 100 µg/disc / zone of inhibition at 200 µg/disc: Helicobacter pylori, read-out: Inhibition Zone Diameter; for zone of inhibition at 100 µg/disc: 100 μg/disc; for zone of inhibition at 200 µg/disc: 200 μg/disc
# Solubility in solvents = type: physicochemical; settings: methanol, acetone, DMSO
# Description: The molecule oenothein C has been isolated from the flowers of the plant Woodfordia fruticosa, abundantly available in the Indian subcontinent. Dried flowers of Woodfordia fruticosa were extracted by soaking overnight with 1:1 methanol-water at room temperature. The process was repeated thrice. The combined extract was evaporated at 45° C. in a rotary evaporator to get the crude extract. This was partitioned between n-butanol and water. The layers were separately evaporated at 45° C. to obtain two fractions. The n-butanol soluble fraction was chromatographed repeatedly over diaion HP-20 and sephadex LH-20 columns following bioassay guided fractionation technique to obtain pure oenothein C as an off-white solid, amorphous in nature.
# E. coli = assay: Antibacterial microbroth dilution assay in Muller Hinton broth (NCCLS); type: cell-based; settings: Escherichia coli, gram negative
# Description: (§1) Further, the antibacterial activity of oenothein C was examined against four aerobic bacteria (1 gram positive, B. cereus and 3 gram negative, S. typhi, E. coli & K. pneumoniae) by microbroth dilution assay in Muller Hinton broth essentially by following NCCLS (National Commmittee for Clinical Laboratory Standards) guideline.
# S. typhi = assay: as above; type: cell-based; settings: Salmonella enterica
# Description: as §1
# B. cereus = assay: as above; type: cell-based; settings: Bacillus cereus, gram positive
# Description: as §1
# K. pneumoniae = assay: as above; type: cell-based; settings: Klebsiella pneumoniae, gram negative
# Description: as §1
# [3] = Helicobacter pylori, ATCC43504, strain ATCC 43504
# [4] = Helicobacter pylori, ATCC43504, strain ATCC 43504, read-out: MIC
# [5] = Helicobacter pylori, ATCC43629, strain ATCC 43629
# [6] = Helicobacter pylori, ATCC43629, strain ATCC 43629, read-out: MIC
# [7] = Helicobacter pylori, ATCC49503, strain ATCC 49503
# [8] = Helicobacter pylori, ATCC49503, strain ATCC 49503, read-out: MIC
# [9] = Helicobacter pylori, NCTC26695, strain NCTC 26695
# [10] = Helicobacter pylori, NCTC26695, strain NCTC 26695, read-out: MIC
# [11] = Helicobacter pylori, strain 80A
# [12] = Helicobacter pylori, strain 80A, read-out: MIC
# T1 sequence (P19156 whole entry): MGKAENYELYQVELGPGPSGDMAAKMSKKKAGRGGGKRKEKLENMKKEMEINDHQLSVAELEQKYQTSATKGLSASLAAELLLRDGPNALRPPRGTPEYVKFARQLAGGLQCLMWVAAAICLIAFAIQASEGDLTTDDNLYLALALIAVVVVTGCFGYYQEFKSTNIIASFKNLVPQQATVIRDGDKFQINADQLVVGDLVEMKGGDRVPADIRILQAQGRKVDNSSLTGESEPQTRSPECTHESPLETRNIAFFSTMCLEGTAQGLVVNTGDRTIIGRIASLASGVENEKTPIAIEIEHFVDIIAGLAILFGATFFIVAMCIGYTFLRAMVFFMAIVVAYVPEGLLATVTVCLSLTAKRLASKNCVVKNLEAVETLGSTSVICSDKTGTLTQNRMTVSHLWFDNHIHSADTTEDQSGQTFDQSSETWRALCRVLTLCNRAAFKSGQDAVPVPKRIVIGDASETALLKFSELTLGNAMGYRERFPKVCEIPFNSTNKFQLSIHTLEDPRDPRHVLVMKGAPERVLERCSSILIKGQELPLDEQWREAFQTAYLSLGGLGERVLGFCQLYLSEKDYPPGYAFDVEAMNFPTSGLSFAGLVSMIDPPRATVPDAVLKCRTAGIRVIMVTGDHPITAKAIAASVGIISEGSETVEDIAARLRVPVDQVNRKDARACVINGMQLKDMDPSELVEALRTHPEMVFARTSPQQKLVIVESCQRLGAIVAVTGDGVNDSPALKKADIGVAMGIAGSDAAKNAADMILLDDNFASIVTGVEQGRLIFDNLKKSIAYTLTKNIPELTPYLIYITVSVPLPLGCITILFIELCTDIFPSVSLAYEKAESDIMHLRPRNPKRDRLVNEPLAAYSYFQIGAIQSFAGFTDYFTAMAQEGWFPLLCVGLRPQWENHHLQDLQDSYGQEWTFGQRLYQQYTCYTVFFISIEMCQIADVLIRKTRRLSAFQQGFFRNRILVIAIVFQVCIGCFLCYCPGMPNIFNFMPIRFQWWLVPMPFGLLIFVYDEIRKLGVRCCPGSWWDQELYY
# T1 sequence (P18434 whole entry partner): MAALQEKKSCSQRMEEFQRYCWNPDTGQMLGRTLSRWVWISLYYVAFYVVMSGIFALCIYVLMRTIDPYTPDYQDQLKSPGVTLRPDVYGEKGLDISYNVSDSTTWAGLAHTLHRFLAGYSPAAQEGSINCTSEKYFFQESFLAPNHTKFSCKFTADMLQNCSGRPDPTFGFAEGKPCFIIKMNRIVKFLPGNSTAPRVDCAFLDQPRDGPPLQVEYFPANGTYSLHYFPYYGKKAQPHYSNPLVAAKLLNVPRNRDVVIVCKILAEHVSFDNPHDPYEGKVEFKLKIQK
structure (smiles),measurement,setting,value
"O=C(O[C@H]1[C@H](O)[C@@H](CO)OC(O)[C@@H]1OC(=O)c1cc(O)c(O)c(O)c1Oc1cc2c(=O)oc3c(O)c(O)cc4c(=O)oc(c1O)c2c34)c1cc(O)c(O)c(O)c1 (mixture of isomers) [Oenothein C, D-Glucose 2-[2-[(5,10-dihydro-3,7,8-trihydroxy-5,10-dioxo[1]benzopyrano[5,4,3-cde][1]benzopyran-2-yl)oxy]-3,4,5-trihydroxy benzoate]-3-(3,4,5-trihydroxybenzoate)]",fold less competent in respect of metronidazole MIC values,H. pylori [1]; 5 strains,2-20 fold
same,MBC,H. pylori [1]; [3],> 50 µg/mL
same,MIC,H. pylori [1]; [4],25 µg/mL
same,MBC,H. pylori [1]; [5],> 50 µg/mL
same,MIC,H. pylori [1]; [6],25 µg/mL
same,MBC,H. pylori [1]; [7],50 µg/mL
same,MIC,H. pylori [1]; [8],6.25 µg/mL
same,MBC,H. pylori [1]; [9],25 µg/mL
same,MIC,H. pylori [1]; [10],12.5 µg/mL
same,MBC,H. pylori [1]; [11],50 µg/mL
same,MIC,H. pylori [1]; [12],25 µg/mL
same,"minimum inhibitory concentration (MIC), range over strains",H. pylori [1]; clinical and standard strains of H. pylori,6.25 to 25.0 µg/mL
same,"fold less potent as compared with clarithromycin and amoxycillin, based on MIC values",H. pylori [1]; different strains,500-1000 fold
same,health and behaviour under observation,"Swiss albino mice; 250 mg/Kg body weight, oral route, 15 days","found to remain healthy, and no behavioral abnormality were noted"
same,mortality,"Swiss albino mice; 250 mg/Kg body weight, oral route, after 24 hours",no mortality
same,toxic effect,Swiss albino mice; single dose level up to 250 mg/kg body weight,does not show any toxic effect
same,inhibition at 0.13 µM,"gastric H+,K+-ATPase; 0.13 μM",20 to 30%
same,inhibition at 0.64 µM,"gastric H+,K+-ATPase; 0.64 μM",50 to 70%
same,inhibition at 1.3 µM,"gastric H+,K+-ATPase; 1.30 μM",70 to 90%
same,IC50,"gastric H+,K+-ATPase; concentration range 0.13 to 1.3 μM, read-out: IC50 of gastric proton pump activity in vitro",600 to 800 nM
same,degree of inhibition of the gastric proton pump,"gastric H+,K+-ATPase; over 0.13-1.30 μM",20-90%
same,degree of inhibition of gastric proton pump higher as compared with omeprazole,"gastric H+,K+-ATPase; versus omeprazole, identical conditions",about 20 fold
same,"inhibition zone diameter, range over strains","H. pylori [2]; 100-200 μg/disc, 6 different strains of H. pylori",1.7-2.5 cm
same,zone of inhibition at 100 µg/disc,H. pylori [2]; strain 80A,20 mm
same,zone of inhibition at 200 µg/disc,H. pylori [2]; strain 80A,25 mm
same,zone of inhibition at 100 µg/disc,H. pylori [2]; strain 121A,17 mm
same,zone of inhibition at 200 µg/disc,H. pylori [2]; strain 121A,20 mm
same,Inhibition Zone Diameter,"H. pylori [2]; strain ATCC 43504, 100 μg/disc",2.0 cm
same,Inhibition Zone Diameter,"H. pylori [2]; strain ATCC 43504, 200 μg/disc",2.7 cm
same,Inhibition Zone Diameter,"H. pylori [2]; strain ATCC 43629, 100 μg/disc",1.9 cm
same,Inhibition Zone Diameter,"H. pylori [2]; strain ATCC 43629, 200 μg/disc",2.3 cm
same,Inhibition Zone Diameter,"H. pylori [2]; strain ATCC 49503, 100 μg/disc",1.7 cm
same,Inhibition Zone Diameter,"H. pylori [2]; strain ATCC 49503, 200 μg/disc",2.2 cm
same,Inhibition Zone Diameter,"H. pylori [2]; strain NCTC 26695, 100 μg/disc",2.0 cm
same,Inhibition Zone Diameter,"H. pylori [2]; strain NCTC 26695, 200 μg/disc",2.4 cm
same,solubility,Solubility in solvents,"soluble in methanol, acetone and DMSO"
same,MIC,E. coli,> 400 µg/mL
same,MIC,S. typhi,> 400 µg/mL
same,MIC,B. cereus,> 400 µg/mL
same,MIC,K. pneumoniae,> 400 µg/mL
"CC1(C)S[C@@H]2[C@H](NC(=O)[C@H](N)c3ccc(O)cc3)C(=O)N2[C@H]1C(=O)O [Amoxycillin, amoxycillin]",MBC,H. pylori [1]; [3],0.05 µg/mL
same,MIC,H. pylori [1]; [4],0.025 µg/mL
same,MBC,H. pylori [1]; [5],0.05 µg/mL
same,MIC,H. pylori [1]; [6],0.025 µg/mL
same,MBC,H. pylori [1]; [7],0.05 µg/mL
same,MIC,H. pylori [1]; [8],0.0125 µg/mL
same,MBC,H. pylori [1]; [9],< 1 µg/mL
same,MIC,H. pylori [1]; [10],0.1 µg/mL
same,MBC,H. pylori [1]; [11],0.08 µg/mL
same,MIC,H. pylori [1]; [12],0.02 µg/mL
same,MIC,H. pylori [1]; strain 80A,0.02 µg/mL
same,MIC,H. pylori [1]; strain ATCC 43504,0.025 µg/mL
same,MIC,H. pylori [1]; strain ATCC 43629,0.025 µg/mL
same,MIC,H. pylori [1]; strain ATCC 49503,0.013 µg/mL
same,MIC,H. pylori [1]; strain NCTC 26695,0.1 µg/mL
"CC[C@H]1OC(=O)[C@H](C)[C@@H](O[C@H]2C[C@@](C)(OC)[C@@H](O)[C@H](C)O2)[C@H](C)[C@@H](O[C@@H]2O[C@H](C)C[C@H](N(C)C)[C@H]2O)[C@](C)(OC)C[C@@H](C)C(=O)[C@H](C)[C@@H](O)[C@]1(C)O [Clarithromycin, clarithromycin]",MBC,H. pylori [1]; [3],0.05 µg/mL
same,MIC,H. pylori [1]; [4],0.025 µg/mL
same,MBC,H. pylori [1]; [5],0.1 µg/mL
same,MIC,H. pylori [1]; [6],0.05 µg/mL
same,MBC,H. pylori [1]; [7],0.013 µg/mL
same,MIC,H. pylori [1]; [8],0.00625 µg/mL
same,MBC,H. pylori [1]; [9],0.1 µg/mL
same,MIC,H. pylori [1]; [10],0.0625 µg/mL
same,MBC,H. pylori [1]; [11],0.04 µg/mL
same,MIC,H. pylori [1]; [12],0.02 µg/mL
same,MIC,H. pylori [1]; strain 80A,0.02 µg/mL
same,MIC,H. pylori [1]; strain ATCC 43504,0.025 µg/mL
same,MIC,H. pylori [1]; strain ATCC 43629,0.050 µg/mL
same,MIC,H. pylori [1]; strain ATCC 49503,0.006 µg/mL
same,MIC,H. pylori [1]; strain NCTC 26695,0.063 µg/mL
same,Inhibition Zone Diameter,"H. pylori [2]; strain 80A, 10 ng/disc",1.8 (10) cm
same,Inhibition Zone Diameter,"H. pylori [2]; strain 121A, 10 ng/disc",1.8 (10) cm
same,Inhibition Zone Diameter,"H. pylori [2]; strain ATCC 43504, 40 ng/disc",2.0 (40) cm
same,Inhibition Zone Diameter,"H. pylori [2]; strain ATCC 43629, 100 ng/disc",1.7 (100) cm
same,Inhibition Zone Diameter,"H. pylori [2]; strain ATCC 49503, 5 ng/disc",1.7 (5) cm
same,Inhibition Zone Diameter,"H. pylori [2]; strain NCTC 26695, 400 ng/disc",2.0 (400) cm
"Cc1ncc([N+](=O)[O-])n1CCO [Metronidazole, metronidazole]",MBC,H. pylori [1]; [3],100 µg/mL
same,MIC,H. pylori [1]; [4],50 µg/mL
same,MBC,H. pylori [1]; [5],6.25 µg/mL
same,MIC,H. pylori [1]; [6],1.56 µg/mL
same,MIC,H. pylori [1]; [8],1.56 µg/mL
same,MBC,H. pylori [1]; [9],10 µg/mL
same,MIC,H. pylori [1]; [10],1.56 µg/mL
same,MBC,H. pylori [1]; [11],> 100 µg/mL
"COc1ccc2[nH]c([S+]([O-])Cc3ncc(C)c(OC)c3C)nc2c1 (centres unmarked) [Omeprazole, omeprazole]","% Inhibition of H+,K+-ATPase","gastric H+,K+-ATPase; 3 μM",10-30%
same,inhibition at 3 µM,"gastric H+,K+-ATPase; 3 μM",~20%
same,inhibition at 15 µM,"gastric H+,K+-ATPase; 15 μM",40 to 60%
same,inhibition at 30 µM,"gastric H+,K+-ATPase; 30 μM",80 to 90%
same,degree of inhibition of the gastric proton pump,"gastric H+,K+-ATPase; over 3-30 μM",10-90%
COC(=O)c1cc(O)c(O)c(O)c1 [methyl gallate],activity in the MIC/MBC anti-H. pylori test,H. pylori [1],did not show any activity
same,activity in the anti-proton pump test,"gastric H+,K+-ATPase",did not show any activity
same,activity in the disc diffusion anti-H. pylori test,H. pylori [2],did not show any activity
